Where two headings read alike, the source gives them in different places.

In US8674113B2, “Compounds” (Boehringer Ingelheim International GmbH, priority 2010, dated 2014) one finds IC50 data, which are given here for 27 molecules.

One assay addresses mPGES-1 in A549 cells (Homo sapiens (Human), UniProt O14684). In words: A549 cell-based assay (PGE2 formation, 50% human serum). Put shortly: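 A549 cells in F-12K with 50% human serum were stimulated 20-24 h with 5 ng/ml IL-1β and 10 nM arachidonic acid in presence of compound or vehicle. PGE2 in the cell-free medium was measured by HTRF, normalised to vehicle (100%). IC50 from 6-8 point titrations.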

Assay [1] addresses recombinant human mPGES-1 (Homo sapiens (Human), UniProt O14684). The experiment in a line: mPGES-1 enzyme assay (HTRF detection of PGE2). Format: biochemical. Here is the method: Microsomes from Rosetta E. coli bacteria expressing recombinant human mPGES-1 can be derived as described below:
Inoculate 5 ml LB with Ampicilin (50 μg/ml) and Chloramphenicol (34 μg/ml) with bacteria from freeze culture. Incubate 8 h at 37° C. with 200 rpm. Thereafter, inoculate 500-1000 ml LB containing Amp and Chloro with the 5 ml on culture and grow to OD640 of 0.8-1.0. Chill the culture to +4° C. before induction. Induce the culture with IPTG at a final concentration of 400 μM. Express the protein at room temp 18-23° C. with 200 rpm shaking over night.
The following steps can be performed on the following day: • 1. Spin down the cells in 250 ml centrifuge flasks for 15 min at 7000 rpm (Beckmann Coulte Avanti J-E centrifuge) • 2. Dissolve the pellet from 250 ml culture in 12.5 ml homogenization buffer • 3. (15 mM Tris-HCL pH8, 1 mM EDTA pH8, […], 2.5 mM GSH, 1 Tablet Protease inhibitor per 50 ml buffer) • 4. Disintegrate the cells by sonication, 5×10 seconds at 48% amplitude of a 750 W sonifier • 5. Add 2.5 ml MgCl2 (100 mM) and DNase 12.5 μl (0.8 mg/ml) and incubate on ice for 30 min • 6. Spin down the bacteria debris and save the supernatant, 7000 rpm for 15 min • 7. Isolate the protein containing membranes in the supernatant by ultracentrifugation 120000×g for 2 hour at 4° C. (Sorvall T880 rotor). • 8. Discard the supernatant and dissolve the pellet in 20 mM Potassium phosphate buffer pH7.4 (KH2PO4 and K2HPO4) buffer by sonication (5×10 s, 30% of a 50 W sonifier) and aliquot the enzyme and store aliquots at −80° C.
Before each experiment is performed an aliquot of the enzyme is thawed and it can then be dissolved in 0.1 M Potassium phosphate buffer pH7.4 (KH2PO4 and K2HPO4) buffer containing 2.5 mM GSH.
The aim of this assay is to determine the affinity of a test compound for the mPGES-1 enzyme.
47 μl of recombinant human mPGES-1 (˜0.5 μg protein/well) containing microsomal suspension in a buffer containing GSH, (2.5 mmol/L L-Glutathione reduced, dissolved in 0.1 mol/L Phosphat Buffer pH 7.4) is dispensed in a 384-well plate and thereafter 1 μl of the test compound(s) is/are added and incubated for 25 minutes at room temperature. The enzyme reaction is started by the addition of 2 ul PGH2 (final conc 2 μM) disolved in water-free Diglyme. After 60 seconds the reaction is terminated by addition of a stop solution containing FeCl2 (10 μL 0.074 mol/l FeCl2). The samples are diluted between 1:25 in PBS (Phosphate Buffered Saline). 10 μl of the diluted samples are transferred to 384-well low volume plate. In order to quantify the amount of PGE2 that has been formed, a homogenous time resolved fluorescent (HTRF) detecting of PGE2 has been performed using a commercially available kit from Cisbio according to the manufactures recommendation. This HTRF-based assay has been described in detail (see: Goedken et al., J Biomol Screen, 2008, 13(7), 619-625). Briefly, the diluted samples are mixed with 5 μl PGE2-d2 conjugate and 5 μl anti-PGE2 cryptate conjugate. After an incubation period of the plates over night, the fluorescence is measured by the use of an appropriate microplate reader.
The fluorescence of Europium cryptate (maxex=307 nm, maxem=620 nm) and d2-PGE2 (maxex=620 nm, maxem=665 nm) are measured.
The extent of the specific HTRF is measured as a ratio of the emission intensity at 665 nm vs. that at 620 nm at an excitation puts of 320 nm. The quantification plate contains also wells with different concentrations of PGE2 as calibration curve for the calculation of the PGE2 concentrations from the HTRF ratio values.
From all mPGES enzyme assay the background is subtracted and the IC50 is calculated over a nonlinear regression with conventional software.

[2] abbreviates: IL-1β 5 ng/ml, 10 nM arachidonic acid, 20-24 h, read-out: mPGES-1 inhibitory effect IC50 in the cell assay.
[3] abbreviates: recombinant human mPGES-1 microsomes, PGH2 2 μM, 60 seconds, read-out: mPGES-1 inhibitory effect IC50 in the enzyme assay.

Sequence of recombinant human mPGES-1 (O14684 whole entry): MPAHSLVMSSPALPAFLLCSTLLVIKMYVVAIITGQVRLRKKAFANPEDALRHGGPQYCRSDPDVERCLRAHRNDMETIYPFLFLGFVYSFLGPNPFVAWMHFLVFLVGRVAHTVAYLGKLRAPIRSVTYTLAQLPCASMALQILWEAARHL
Sequence of mPGES-1 in A549 cells (O14684 whole entry): as above

One may read the IC50 as the concentration that inhibits the measured activity by half. With `Cn1c(Nc2c(Cl)ccc(CNC(=O)C(C)(C)C)c2Cl)nc2cc(C(=O)NCC(F)(F)F)c(N3CCC(F)(F)C3)cc21` [Example 26, N-(2,2,2-Trifluoroethyl)-2-{2,6-dichloro-3-[(2,2-dimethyl-propionylamino)-methyl]-phenylamino}-6-[3,3-difluoro-pyrrolidinyl]-1-methyl-1H-benzimidazole-5-carboxylic acid amide], the IC50 on mPGES-1 in A549 cells (setting [2]) came out at 3.6 nM; in assay [1] (setting [3]) it was 3 nM.

Turning to `CN(c1cc2c(cc1C(=O)NCC(F)(F)F)nc(Nc1c(Cl)ccc(CNC(=O)C(C)(C)C)c1Cl)n2C)C1CCCC1` [Example 27], the IC50 (on mPGES-1 in A549 cells (setting [2]); in assay [1] (setting [3])) was 2 nM throughout.

Consider `Cn1c(Nc2c(Cl)ccc(CNC(=O)C(C)(C)C)c2Cl)nc2cc(C(=O)NCC(F)(F)F)c(N3CCC(C(F)(F)F)CC3)cc21` [Example 28], for which the IC50 on mPGES-1 in A549 cells (setting [2]) was determined as 1.5 nM; in assay [1] (setting [3]), 2 nM.

Consider `Cn1c(Nc2c(Cl)ccc(CNC(=O)C(C)(C)C)c2Cl)nc2cc(C(=O)NCC(F)(F)F)c(N3CCC(C(C)(C)O)CC3)cc21` [Example 29, N-(2,2,2-Trifluoroethyl)-2-{2,6-dichloro-3-[(2,2-dimethyl-propionylamino)-methyl]-phenylamino}-6-[4-(1-hydroxy-1-methyl-ethyl)-piperidinyl]-1-methyl-1H-benzimidazole-5-carboxylic acid amide], for which the IC50 was found to be 3 nM on mPGES-1 in A549 cells (setting [2]) and 2 nM in assay [1] (setting [3]).

Consider `Cn1c(Nc2c(Cl)ccc(CNC(=O)C(C)(C)C)c2Cl)nc2cc(C(=O)NCC(F)(F)F)c(Nc3ccc(F)c(Cl)c3)cc21` [Example 30], for which the values for the IC50 (on mPGES-1 in A549 cells (setting [2]); in assay [1] (setting [3])) were 144 nM and 5 nM, respectively.

Turning to `CN(c1ccc(F)c(Cl)c1)c1cc2c(cc1C(=O)NCC(F)(F)F)nc(Nc1c(Cl)ccc(CNC(=O)C(C)(C)C)c1Cl)n2C` [Example 31], the IC50 came to 33 nM at mPGES-1 in A549 cells (setting [2]) and 4 nM in assay [1] (setting [3]).

On to `Cn1c(Nc2c(Cl)ccc(CNC(=O)C(C)(C)C)c2Cl)nc2cc(C(=O)NCC(F)(F)F)c(N3CCc4ccc(Cl)cc4C3)cc21` [Example 32], for which the values for the IC50 (on mPGES-1 in A549 cells (setting [2]); in assay [1] (setting [3])) were 6 nM and 2 nM, respectively.

On to `Cc1nc2c(s1)CN(c1cc3c(cc1C(=O)NCC(F)(F)F)nc(Nc1c(Cl)ccc(CNC(=O)C(C)(C)C)c1Cl)n3C)C2` [Example 33], for which the IC50 on mPGES-1 in A549 cells (setting [2]) is 8 nM; in assay [1] (setting [3]), 3 nM.

Turning to `CN(CCC(F)(F)F)c1cc2c(cc1C(=O)NCC(F)(F)F)nc(Nc1c(Cl)ccc(CNC(=O)C(C)(C)C)c1Cl)n2C` [Example 34], the IC50 at mPGES-1 in A549 cells (setting [2]) came to 1 nM; in assay [1] (setting [3]) it was 3 nM.

On to `Cn1c(Nc2c(Cl)ccc(CNC(=O)C(C)(C)C)c2Cl)nc2cc(C(=O)Nc3ccc(OC(F)(F)F)cc3)c(N3CCC(F)(F)C3)cc21` [Example 35, N-(4-Trifluoromethoxy-phenyl)-2-{2,6-dichloro-3-[(2,2-dimethyl-propionylamino)-methyl]-phenylamino}-6-[3,3-difluoro-pyrrolidinyl]-1-methyl-1H-benzimidazole-5-carboxylic acid amide], for which the IC50 on mPGES-1 in A549 cells (setting [2]) was 1 nM; in assay [1] (setting [3]), 2 nM.

As to `CC(NC(=O)c1cc2nc(Nc3c(Cl)ccc(CNC(=O)C(C)(C)C)c3Cl)n(C)c2cc1N1CCC(F)(F)C1)c1cccs1` (centres unmarked) [Example 36], the IC50 at mPGES-1 in A549 cells (setting [2]) was 6.5 nM; in assay [1] (setting [3]), 5 nM.

`Cn1c(Nc2c(Cl)ccc(CNC(=O)C(C)(C)C)c2Cl)nc2cc(C(=O)NC3(c4ccc(F)cc4)CC3)c(N3CCC(F)(F)C3)cc21` [Example 37]: the IC50 at mPGES-1 in A549 cells (setting [2]) was 3 nM; in assay [1] (setting [3]), 5 nM.

For `Cn1c(Nc2c(Cl)ccc(CNC(=O)C(C)(C)C)c2Cl)nc2cc(C(=O)NC(c3ccccn3)C(F)(F)F)c(N3CCC(F)(F)C3)cc21` (centres unmarked) [Example 38], the IC50 was 6 nM on mPGES-1 in A549 cells (setting [2]) and 4 nM in assay [1] (setting [3]).

Regarding `CC(NC(=O)c1cc2nc(Nc3c(Cl)ccc(CNC(=O)C(C)(C)C)c3Cl)n(C)c2cc1N1CCC(F)(F)C1)C(F)(F)F` (centres unmarked) [Example 39], the IC50 amounted to 2 nM at mPGES-1 in A549 cells (setting [2]) and 1 nM in assay [1] (setting [3]).

On to `Cn1c(Nc2c(Cl)ccc(CNC(=O)C(C)(C)C)c2Cl)nc2cc(C(=O)Nc3cccc(OC(F)(F)F)c3)c(N3CCC(F)(F)C3)cc21` [Example 40], for which the results for the IC50 (at mPGES-1 in A549 cells (setting [2]); in assay [1] (setting [3])) were less than 1 nM and 2 nM, respectively.

Turning to `Cn1c(Nc2c(Cl)ccc(CNC(=O)C(C)(C)C)c2Cl)nc2cc(C(=O)N[C@H](c3ccccc3)C(F)(F)F)c(N3CCC(F)(F)C3)cc21` [Example 41], the IC50 on mPGES-1 in A549 cells (setting [2]) turned out to be 7 nM; in assay [1] (setting [3]), 2 nM.

For the molecule `Cn1c(Nc2c(Cl)ccc(CNC(=O)C(C)(C)C)c2Cl)nc2cc(C(=O)Nc3ccc(F)c(Cl)c3)c(N3CCC(F)(F)C3)cc21` [Example 42], the IC50 (on mPGES-1 in A549 cells (setting [2]); in assay [1] (setting [3])) was 2 nM in each case.

`Cn1c(Nc2c(Cl)ccc(CNC(=O)C(C)(C)C)c2Cl)nc2cc(C(=O)NCc3ncccc3C(F)(F)F)c(N3CCC(F)(F)C3)cc21` [Example 43]: the IC50 stood at 5 nM at mPGES-1 in A549 cells (setting [2]) and 3 nM in assay [1] (setting [3]).

In the case of `Cn1c(Nc2c(Cl)ccc(CNC(=O)C(C)(C)C)c2Cl)nc2cc(C(=O)NCc3ccc(F)cc3C(F)(F)F)c(N3CCC(F)(F)C3)cc21` [Example 44], the IC50 on mPGES-1 in A549 cells (setting [2]) came out at 6 nM; in assay [1] (setting [3]), 4 nM.

Consider `Cn1c(Nc2c(Cl)ccc(CNC(=O)C(C)(C)C)c2Cl)nc2cc(C(=O)NCC3CC3)c(N3CCC(F)(F)C3)cc21` [Example 45], for which the IC50 was determined as 7 nM at mPGES-1 in A549 cells (setting [2]); 7 nM on mPGES-1 in A549 cells (Table C comparison of selected benzimidazoles, read-out: Cell IC50); 5 nM in assay [1] (Table C comparison of selected benzimidazoles, read-out: Enzym IC50); 5 nM in assay [1] (setting [3]).

Consider `Cn1c(Nc2c(Cl)ccc(CNC(=O)C(C)(C)C)c2Cl)nc2cc(C(=O)NCCCC(F)(F)F)c(N3CCC(F)(F)C3)cc21` [Example 46], for which the IC50 at mPGES-1 in A549 cells (setting [2]) was determined as 7 nM; in assay [1] (setting [3]), 3 nM.

Turning to `Cn1c(Nc2c(Cl)ccc(CNC(=O)C(C)(C)C)c2Cl)nc2cc(C(=O)Nc3cccc(C(F)(F)F)n3)c(N3CCC(F)(F)C3)cc21` [Example 47], the IC50 at mPGES-1 in A549 cells (setting [2]) was 1 nM; in assay [1] (setting [3]) it was 2 nM.

Regarding `Cn1c(Nc2c(Cl)ccc(CNC(=O)C(C)(C)C)c2Cl)nc2cc(C(=O)NC(Cc3ccccc3)C(F)(F)F)c(N3CCC(F)(F)C3)cc21` (centres unmarked) [Example 48], the concentration for half-maximal inhibition (IC50) turned out to be 8 nM on mPGES-1 in A549 cells (setting [2]) and 2 nM in assay [1] (setting [3]).

For the molecule `CC(C)C(NC(=O)c1cc2nc(Nc3c(Cl)ccc(CNC(=O)C(C)(C)C)c3Cl)n(C)c2cc1N1CCC(F)(F)C1)C(F)(F)F` (centres unmarked) [Example 49], the IC50 (at mPGES-1 in A549 cells (setting [2]); in assay [1] (setting [3])) was 4 nM in each case.

With `Cn1c(Nc2c(Cl)ccc(CNC(=O)C(C)(C)C)c2Cl)nc2cc(C(=O)NCC(F)(F)C(F)(F)F)c(N3CCC(F)(F)C3)cc21` [Example 50], the IC50 at mPGES-1 in A549 cells (setting [2]) is 2 nM; in assay [1] (setting [3]) it was 3 nM.

As for `Cn1c(Nc2c(Cl)ccc(CNC(=O)C(C)(C)C)c2F)nc2cc(C(=O)Nc3ccc(F)c(Cl)c3)c(N3CCC(F)(F)C3)cc21` [Example 51], the IC50 on mPGES-1 in A549 cells (setting [2]) was less than 1 nM; in assay [1] (setting [3]), 3 nM.

Turning to `Cn1c(Nc2c(Cl)ccc(CNC(=O)C(C)(C)C)c2Cl)nc2cc(C(=O)NCC(F)(F)C(F)(F)F)c(N3CCC(C(F)(F)F)CC3)cc21` [Example 53], the IC50 at mPGES-1 in A549 cells (setting [2]) came to 1 nM; in assay [1] (setting [3]), 2 nM.
